For one test, the system named is malic enzyme. The conditions noted are these: Rognstad & Katz, 1979; cited from earlier work.
Test [1] has as its target T1, Metallosphaera sedula succinic semialdehyde reductase (Ms-SSR), wild type, SEQ ID No. 16 (Metallosphaera sedula, UniProt A4YGN0).
T1 construct: full length 360 aa
T1 sequence (A4YGN0 1-360): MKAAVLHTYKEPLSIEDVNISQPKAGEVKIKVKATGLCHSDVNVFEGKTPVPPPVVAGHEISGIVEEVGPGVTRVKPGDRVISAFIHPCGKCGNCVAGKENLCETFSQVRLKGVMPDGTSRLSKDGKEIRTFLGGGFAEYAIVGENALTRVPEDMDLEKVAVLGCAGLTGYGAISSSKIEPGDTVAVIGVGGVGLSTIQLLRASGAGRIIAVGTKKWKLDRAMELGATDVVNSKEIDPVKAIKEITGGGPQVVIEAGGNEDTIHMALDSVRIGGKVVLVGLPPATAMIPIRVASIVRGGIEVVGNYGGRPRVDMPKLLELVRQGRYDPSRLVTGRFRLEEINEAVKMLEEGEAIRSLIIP
Nature of the test: Malate semialdehyde reductase activity. The format is biochemical. To be noted: NADH or NADPH, pH 7.5, 30° C., average of at least two independent experiments. How it is done:
To identify a suitable 2,4 DHB dehydrogenase, beta-hydroxyacid dehydrogenases from different biological sources were tested for their ability to reduce malate semialdehyde. […] The genes YPR1, 4hbdh, yqhD, and Ms-SSR were amplified using primers listed in Table 5 and cloned into vector pET28 (restriction enzymes see Table 5) yielding plasmids pET28-Sce-YPR1, pET28-Pgi-4-hbdh, pET28-Eco-yqhd and pET28-Mse-SSR, respectively. The proteins were expressed and purified as described in Example 1.
(§1) Test for Malate Semialdehyde Reductase Activity: (L)-Malate semialdehyde+NAD(P)H→(L)-2,4-dihydroxybutyric acid+NAD(P) Reaction scheme:
(§2) The assay mixture contained 200 mM Hepes (pH 7.5), 50 mM KCl, 5 mM MgCl2, 0.24 mM NADH or NADPH, and appropriate amounts of purified enzyme or cell extract. Reactions were started by adding 10 mM (L)-malate semialdehyde (malate semialdehyde was prepared freshly for each test, see Example 3). Enzymatic assays were carried out at 30° C. in 96-well flat bottomed microtiter plates in a final volume of 250 μL. The reactions were followed by the characteristic absorption of NAD(P)H at 340 nm (εNADPH=6.22 mM^−1 cm^−1) in a microplate reader (BioRad 680XR).

The target in test [2] is T2, Metallosphaera sedula succinic semialdehyde reductase (Ms-SSR) double mutant H39R N43H, SEQ ID No. 36 (Metallosphaera sedula, UniProt A4YGN0, H39R/N43H).
T2 sequence (A4YGN0 1-360 H39R/N43H): T1 sequence (A4YGN0 1-360) with H39R, N43H
Nature of the test: Malate semialdehyde reductase activity. The format is biochemical. The conditions noted are these: NADH or NADPH, pH 7.5, 30° C., average of at least two independent experiments. How it is done:
as §1, §2
(§3) Site-directed mutagenesis was carried out using the oligonucleotide pairs listed in Table 6 and the pET28-Mse-SSR plasmid as the template. Point mutations to change the amino acid sequences were introduced by PCR (Phusion 1U, HF buffer 20% (v/v), dNTPs 2.5 mM, direct and reverse primers 1 μM each, template plasmid 200 ng, water). When possible, plasmids created by PCR contained new restriction sites (introduced using silent mutations) in addition to the functional mutation to facilitate identification of mutated clones. The PCR products were digested by DpnI at 37° C. for 2×2 h to remove template DNA, and transformed into NEB DH5-α competent E. coli cells (NEB). The mutated plasmids were identified by restriction site analysis and verified to carry the desired mutations by DNA sequencing.

Test [3] has as its target T3, Metallosphaera sedula succinic semialdehyde reductase (Ms-SSR) mutant H39R, SEQ ID No. 32 (Metallosphaera sedula, UniProt A4YGN0, H39R).
T3 sequence (A4YGN0 1-360 H39R): T1 sequence (A4YGN0 1-360) with H39R
Description: Malate semialdehyde reductase activity. In kind it is biochemical. The conditions noted are these: NADH or NADPH, pH 7.5, 30° C., average of at least two independent experiments. How it is done: as §1, §2, §3

The target in test [4] is T4, Metallosphaera sedula succinic semialdehyde reductase (Ms-SSR) mutant N43H, SEQ ID No. 34 (Metallosphaera sedula, UniProt A4YGN0, N43H).
T4 sequence (A4YGN0 1-360 N43H): T1 sequence (A4YGN0 1-360) with N43H
Description: Malate semialdehyde reductase activity. The format is biochemical. To be noted: NADH or NADPH, pH 7.5, 30° C., average of at least two independent experiments. How it is done:
as §1, §2, §3

Consider 2 compounds from US9890400B2, “Method of production of 2,4-dihydroxybutyric acid” (ADISSEO FRANCE S.A.S., priority 2012, dated 2018).

Each structure is given as a SMILES string. Residue numbers refer to the chain shown, from its start.

Take `O=C(O)[C@@H](O)CCO` [2,4-DHB, 2,4-dihydroxybutyric acid]: the “inhibition of malic enzyme” value in the test on malic enzyme is on record as “competitive inhibitor”.

As for `O=CC[C@H](O)C(=O)O` [malate semialdehyde, (L)-malate semialdehyde], the Maximum activity is 4.9 μmol/(min * mgprot) in test [1], 4.7 μmol/(min * mgprot) in test [2], 1.7 μmol/(min * mgprot) in test [3] and 4.3 μmol/(min * mgprot) in test [4].
